Tests used:
AKT2 (PKBβ) = AKT2 (PKBβ) (Homo sapiens, UniProt P31751); experiment: SelectScreen kinase profiling: AKT2; format: biochemical; details: for IC50: 10-point titration, [ATP] 200 μM
Description: (§1) Effect of the indicated compounds on the activity of various kinases was assessed by SelectScreen Kinase Profiling Service (Invitrogen-Life Technologies, Paisley, UK). Assays were performed using 1 μM of the tested compounds and ATP concentration as indicated in the corresponding tables. In the case of […] a screen using 10 μM of the compound was also carried out, as indicated in the corresponding table.

AMPK A2/B1/G1 = AMPK A2/B1/G1 (Homo sapiens, UniProt P54646); experiment: SelectScreen kinase profiling: AMPK A2/B1/G1; format: biochemical; details: 1 µM compound; [ATP] 150 µM
Description: as §1

AURKA (Aurora A) = AURKA (Aurora A) (Homo sapiens, UniProt O14965); experiment: SelectScreen kinase profiling: AURKA; format: biochemical; details: 1 µM compound; [ATP] 10 µM
Description: as §1

CDK1/cyclin B = CDK1/cyclin B (Homo sapiens, UniProt P06493); experiment: SelectScreen kinase profiling: CDK1/cyclin B; format: biochemical; details: [ATP] 25 µM
Description: as §1

CHEK2 (CHK2) = CHEK2 (CHK2) (Homo sapiens, UniProt O96017); experiment: SelectScreen kinase profiling: CHEK2; format: biochemical; details: [ATP] 75 µM
Description: as §1

CSNK1G1 (CK1γ1) = CSNK1G1 (CK1γ1) (Homo sapiens, UniProt Q9HCP0); experiment: SelectScreen kinase profiling: CSNK1G1; format: biochemical; details: [ATP] 5 µM
Description: as §1

ITK = ITK (Homo sapiens, UniProt Q08881); experiment: SelectScreen kinase profiling: ITK; format: biochemical; details: [ATP] 5 µM
Description: as §1

MAPK14 (p38α) = MAPK14 (p38α) (Homo sapiens, UniProt Q16539); experiment: SelectScreen kinase profiling: MAPK14; format: biochemical; details: 1 µM compound; [ATP] 100 µM
Description: as §1

MAPK9 (JNK2) = MAPK9 (JNK2) (Homo sapiens, UniProt P45984); experiment: SelectScreen kinase profiling: MAPK9; format: biochemical; details: [ATP] 100 µM
Description: as §1

MAPKAPK2 = MAPKAPK2 (Homo sapiens, UniProt P49137); experiment: SelectScreen kinase profiling: MAPKAPK2; format: biochemical; details: 1 µM compound; [ATP] 5 µM
Description: as §1

PRKCD (PKCδ) = PRKCD (PKCδ) (Homo sapiens, UniProt Q05655); experiment: SelectScreen kinase profiling: PRKCD; format: biochemical; details: [ATP] 25 µM
Description: as §1

ROCK1 = ROCK1 (Homo sapiens, UniProt Q13464); experiment: SelectScreen kinase profiling: ROCK1; format: biochemical; details: [ATP] 5 µM
Description: as §1

RPS6KA1 (RSK1) = RPS6KA1 (RSK1) (Homo sapiens, UniProt Q15418); experiment: SelectScreen kinase profiling: RPS6KA1; format: biochemical; details: [ATP] 5 µM
Description: as §1

CDK7/cyclin H/MNAT1 = CDK7/cyclin H/MNAT1 (Homo sapiens, UniProt P50613); experiment: SelectScreen kinase profiling: CDK7/cyclin H/MNAT1; format: biochemical; details: [ATP] 150 µM
Description: as §1

CDK9/cyclin T1 = CDK9/cyclin T1 (Homo sapiens, UniProt P50750); experiment: SelectScreen kinase profiling: CDK9/cyclin T1; format: biochemical; details: [ATP] 25 µM
Description: as §1

PI4KB (PI4Kβ) = PI4KB (PI4Kβ) (Homo sapiens, UniProt Q9UBF8); experiment: SelectScreen kinase profiling: PI4KB; format: biochemical; details: [ATP] 5 µM
Description: as §1

PIK3CG (p110γ) = PIK3CG (p110γ) (Homo sapiens, UniProt P48736); experiment: SelectScreen kinase profiling: PIK3CG; format: biochemical; details: [ATP] 25 µM
Description: as §1

PC3 xenografts = experiment: Anti-tumour activity assay on PC3 xenografts; format: in vivo, nude athymic CD-1 nu/nu mice; details: for tumour growth: 14 consecutive days
Description: Male nude athymic CD-1 nu/nu mice (8-weeks old) were obtained from Harlan (San Pietro al Natisone, Italy) and maintained under specific pathogen-free conditions with food and water provided ad libitum. The general health status of the animals was monitored daily. Procedure involving animals and their care were conducted in conformity with the institutional guidelines that are in compliance with national and international laws and policies.
Exponentially growing PC3 cells were harvested, washed twice and resuspended in PBS at a concentration of 2.5 × 10^7 cells ml^−1. A suspension of 5 × 10^6 PC3 cells was injected subcutaneously (s.c.) into the left flank of the recipient mice. When tumours reached a size of ∼70 mm^3 (approximately 15 days after tumour cell implant), mice were divided into seven groups (n=7). […] Control mice were treated with water in an equal volume. The diameters of s.c. growing tumours were measured with a caliper twice a week and the experiment was ended at day 28 after the implantation.
The volume of s.c. growing tumours was calculated by the formula: Tumour weight (mg)=(length × width^2)/2. Differences in s.c tumour growth between the treatment groups were evaluated with a one-way ANOVA followed by Fisher's test using the StatView statistical package (SAS Institute, Cary, NC, USA). The percentage of tumour growth was calculated as T/C%=(RTV-treated animals/RTV-control animals) × 100, where RTV was the mean relative tumour volume calculated as RTV=Vt/V0. Vt was the tumour volume on the day of measurement and V0 was the tumour volume at the beginning of the treatment. The percentage of tumour weight inhibition (TWI%) was calculated using the formula: TWI%=100–T/C%. The log cell kill (LCK) was calculated using the formula: LCK=T−C/3.32 × Td, where T−C is the tumour growth delay calculated as the difference in median time (in days) required for the tumours in the treatment (T) and control group (C) to reach a predetermined size (i.e., 1000 mg). Td is the tumour volume doubling time in days, determined in the exponential growth phase of the control group from a best-fit straight line. […]
The inositol compounds (12.5–25–50 mg kg^−1 day^−1) and vehicle (water) were given daily by intraperitoneal (i.p.) injections for 14 consecutive days (days 15–28). Tumour size was assessed twice weekly. (A, B) Tumour growth in 2-O-Bn-InsP5-treated mice (A) and InsP5-treated mice (B) compared with control group measured for the duration of the experiment. Results are expressed as mean±s.e. […] The percentage of tumour weight inhibition (TWI%), the tumour growth delay (T−C) and the log cell kill (LCK) were calculated as described in the MATERIALS AND METHODS section. […] Phosphorylation of Akt at its residues Ser473 and Thr308 was assessed by using specific antibodies. […]

Water solubility = format: physicochemical

Sequence of AKT2 (PKBβ) (P31751 whole entry): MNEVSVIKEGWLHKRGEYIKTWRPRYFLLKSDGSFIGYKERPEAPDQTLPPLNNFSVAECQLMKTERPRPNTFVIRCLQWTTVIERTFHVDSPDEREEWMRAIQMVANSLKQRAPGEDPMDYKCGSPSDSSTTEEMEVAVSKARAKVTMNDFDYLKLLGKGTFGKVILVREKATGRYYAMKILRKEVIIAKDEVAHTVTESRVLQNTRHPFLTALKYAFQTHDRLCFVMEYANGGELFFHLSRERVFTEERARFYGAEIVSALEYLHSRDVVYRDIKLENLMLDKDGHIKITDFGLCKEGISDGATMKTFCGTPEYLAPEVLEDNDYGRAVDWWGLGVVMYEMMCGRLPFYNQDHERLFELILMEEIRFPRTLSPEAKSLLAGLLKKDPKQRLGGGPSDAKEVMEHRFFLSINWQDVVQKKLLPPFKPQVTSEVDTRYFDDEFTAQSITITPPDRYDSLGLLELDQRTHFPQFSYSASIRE
Sequence of ITK (Q08881 whole entry): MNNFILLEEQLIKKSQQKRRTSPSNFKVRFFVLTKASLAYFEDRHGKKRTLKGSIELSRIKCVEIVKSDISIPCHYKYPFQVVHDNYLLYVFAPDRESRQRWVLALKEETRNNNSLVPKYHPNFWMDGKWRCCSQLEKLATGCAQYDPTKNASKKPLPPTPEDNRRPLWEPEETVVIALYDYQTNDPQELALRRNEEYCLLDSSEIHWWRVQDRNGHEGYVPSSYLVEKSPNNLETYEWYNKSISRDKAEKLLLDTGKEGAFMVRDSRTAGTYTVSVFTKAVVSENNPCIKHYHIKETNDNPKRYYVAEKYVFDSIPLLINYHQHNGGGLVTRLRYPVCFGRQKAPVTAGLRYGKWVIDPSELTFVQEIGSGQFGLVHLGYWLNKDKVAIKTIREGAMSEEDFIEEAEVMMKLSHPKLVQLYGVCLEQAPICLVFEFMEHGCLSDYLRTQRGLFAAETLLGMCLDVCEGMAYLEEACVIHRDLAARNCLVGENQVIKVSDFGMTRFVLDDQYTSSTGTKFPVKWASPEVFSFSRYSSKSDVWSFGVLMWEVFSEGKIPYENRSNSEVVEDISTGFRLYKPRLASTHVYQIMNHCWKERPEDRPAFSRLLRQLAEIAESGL
Sequence of MAPK9 (JNK2) (P45984 whole entry): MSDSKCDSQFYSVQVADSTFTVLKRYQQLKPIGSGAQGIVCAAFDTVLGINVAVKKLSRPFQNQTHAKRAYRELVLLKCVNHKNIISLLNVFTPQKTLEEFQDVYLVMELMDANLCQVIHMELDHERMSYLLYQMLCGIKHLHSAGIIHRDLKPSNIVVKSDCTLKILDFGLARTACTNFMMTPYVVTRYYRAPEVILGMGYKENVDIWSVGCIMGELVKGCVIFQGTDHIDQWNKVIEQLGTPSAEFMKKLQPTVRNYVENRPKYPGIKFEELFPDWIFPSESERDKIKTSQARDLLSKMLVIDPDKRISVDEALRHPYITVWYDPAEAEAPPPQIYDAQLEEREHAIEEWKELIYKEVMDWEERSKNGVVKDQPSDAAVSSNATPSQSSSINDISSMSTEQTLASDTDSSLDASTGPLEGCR
Sequence of PI4KB (PI4Kβ) (Q9UBF8 whole entry): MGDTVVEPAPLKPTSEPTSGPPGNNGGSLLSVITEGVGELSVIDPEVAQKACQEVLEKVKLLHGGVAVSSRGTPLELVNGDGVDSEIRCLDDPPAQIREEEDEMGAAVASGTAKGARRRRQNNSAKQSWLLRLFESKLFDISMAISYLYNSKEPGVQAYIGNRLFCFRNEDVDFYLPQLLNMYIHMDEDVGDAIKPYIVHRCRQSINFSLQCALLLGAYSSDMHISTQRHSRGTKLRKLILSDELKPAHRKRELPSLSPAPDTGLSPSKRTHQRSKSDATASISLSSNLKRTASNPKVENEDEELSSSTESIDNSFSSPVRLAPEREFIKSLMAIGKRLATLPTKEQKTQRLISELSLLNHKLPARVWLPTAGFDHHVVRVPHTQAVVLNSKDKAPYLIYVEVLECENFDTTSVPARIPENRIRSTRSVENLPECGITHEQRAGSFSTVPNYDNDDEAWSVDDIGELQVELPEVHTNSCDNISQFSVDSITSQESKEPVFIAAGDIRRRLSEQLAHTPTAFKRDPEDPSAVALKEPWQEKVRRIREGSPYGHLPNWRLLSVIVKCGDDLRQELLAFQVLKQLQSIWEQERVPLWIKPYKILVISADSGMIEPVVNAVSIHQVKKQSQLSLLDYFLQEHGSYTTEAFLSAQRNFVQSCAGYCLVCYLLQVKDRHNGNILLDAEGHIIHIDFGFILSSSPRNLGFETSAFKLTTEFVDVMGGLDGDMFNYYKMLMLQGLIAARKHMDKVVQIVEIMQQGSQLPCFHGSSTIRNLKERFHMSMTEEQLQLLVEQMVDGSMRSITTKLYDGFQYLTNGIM
Sequence of CDK9/cyclin T1 (P50750 whole entry): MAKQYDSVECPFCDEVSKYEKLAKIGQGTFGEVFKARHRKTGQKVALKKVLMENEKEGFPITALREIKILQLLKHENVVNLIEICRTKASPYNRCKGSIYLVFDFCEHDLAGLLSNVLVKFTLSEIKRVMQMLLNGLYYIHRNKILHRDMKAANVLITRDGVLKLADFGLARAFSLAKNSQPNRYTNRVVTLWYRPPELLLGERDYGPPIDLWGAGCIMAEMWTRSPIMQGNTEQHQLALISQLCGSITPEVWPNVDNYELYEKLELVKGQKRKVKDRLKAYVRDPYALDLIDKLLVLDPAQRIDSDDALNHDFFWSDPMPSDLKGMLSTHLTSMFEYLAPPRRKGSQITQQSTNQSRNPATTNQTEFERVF
Sequence of CDK9/cyclin T1 (O60563 whole entry partner): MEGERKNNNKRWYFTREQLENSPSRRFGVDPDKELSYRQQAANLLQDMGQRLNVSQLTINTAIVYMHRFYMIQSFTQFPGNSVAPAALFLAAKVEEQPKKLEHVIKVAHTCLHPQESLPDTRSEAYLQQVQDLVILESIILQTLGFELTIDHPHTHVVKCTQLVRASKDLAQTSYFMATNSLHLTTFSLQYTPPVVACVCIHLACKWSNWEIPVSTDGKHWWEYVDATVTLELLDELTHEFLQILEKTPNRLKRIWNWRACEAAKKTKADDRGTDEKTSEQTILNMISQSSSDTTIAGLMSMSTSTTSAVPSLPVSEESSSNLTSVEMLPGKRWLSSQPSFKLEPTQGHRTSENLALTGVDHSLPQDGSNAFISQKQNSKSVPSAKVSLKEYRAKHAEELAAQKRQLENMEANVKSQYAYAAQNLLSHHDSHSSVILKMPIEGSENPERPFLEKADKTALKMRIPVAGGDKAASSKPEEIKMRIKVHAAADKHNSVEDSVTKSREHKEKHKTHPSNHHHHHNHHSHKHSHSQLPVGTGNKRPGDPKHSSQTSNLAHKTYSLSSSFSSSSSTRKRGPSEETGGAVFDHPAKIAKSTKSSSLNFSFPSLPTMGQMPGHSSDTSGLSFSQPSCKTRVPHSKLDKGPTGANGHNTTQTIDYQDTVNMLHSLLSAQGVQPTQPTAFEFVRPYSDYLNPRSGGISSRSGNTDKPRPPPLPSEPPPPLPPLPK
Sequence of CSNK1G1 (CK1γ1) (Q9HCP0 whole entry): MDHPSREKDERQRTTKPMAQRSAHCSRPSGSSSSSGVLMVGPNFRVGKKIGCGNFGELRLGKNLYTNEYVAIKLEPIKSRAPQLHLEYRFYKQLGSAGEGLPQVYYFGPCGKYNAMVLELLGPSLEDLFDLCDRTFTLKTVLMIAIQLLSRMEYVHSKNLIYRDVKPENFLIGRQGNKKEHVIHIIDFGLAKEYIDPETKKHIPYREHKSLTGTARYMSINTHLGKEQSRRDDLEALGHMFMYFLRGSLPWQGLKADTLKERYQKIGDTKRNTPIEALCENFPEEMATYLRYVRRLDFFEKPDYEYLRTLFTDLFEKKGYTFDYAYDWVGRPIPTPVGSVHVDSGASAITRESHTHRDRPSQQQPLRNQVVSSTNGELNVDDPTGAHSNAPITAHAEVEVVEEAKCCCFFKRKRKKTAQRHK
Sequence of AURKA (Aurora A) (O14965 whole entry): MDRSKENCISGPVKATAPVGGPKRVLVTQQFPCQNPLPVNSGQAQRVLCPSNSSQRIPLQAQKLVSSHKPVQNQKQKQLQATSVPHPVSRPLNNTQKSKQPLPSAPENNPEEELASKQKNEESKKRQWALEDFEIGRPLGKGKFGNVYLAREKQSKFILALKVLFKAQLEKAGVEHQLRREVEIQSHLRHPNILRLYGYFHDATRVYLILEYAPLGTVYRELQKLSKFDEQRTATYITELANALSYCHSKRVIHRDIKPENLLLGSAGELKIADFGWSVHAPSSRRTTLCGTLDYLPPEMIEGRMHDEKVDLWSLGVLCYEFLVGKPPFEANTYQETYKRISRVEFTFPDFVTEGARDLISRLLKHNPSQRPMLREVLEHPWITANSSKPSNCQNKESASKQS
Sequence of MAPKAPK2 (P49137 whole entry): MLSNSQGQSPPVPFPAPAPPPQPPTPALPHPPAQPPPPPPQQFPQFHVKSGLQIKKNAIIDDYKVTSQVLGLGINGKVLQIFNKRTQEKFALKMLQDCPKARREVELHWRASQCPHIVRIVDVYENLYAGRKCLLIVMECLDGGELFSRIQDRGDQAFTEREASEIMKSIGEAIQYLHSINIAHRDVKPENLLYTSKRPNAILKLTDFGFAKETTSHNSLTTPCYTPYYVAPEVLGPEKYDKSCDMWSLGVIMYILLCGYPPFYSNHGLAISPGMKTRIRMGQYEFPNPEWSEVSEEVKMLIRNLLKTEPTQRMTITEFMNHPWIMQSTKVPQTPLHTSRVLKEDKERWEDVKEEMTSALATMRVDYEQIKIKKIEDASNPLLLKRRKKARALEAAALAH

With `O=P(O)(O)OC1C(O)C(OP(=O)(O)O)C(OP(=O)(O)O)C(OP(=O)(O)O)C1OP(=O)(O)O` (centres unmarked) [InsP5, inositol 1,3,4,5,6-pentakisphosphate] the IC50 (AKT2 (PKBβ)) was 38.3 µM, the inhibition at 1 µM (AMPK A2/B1/G1) was 7% and the inhibition at 1 µM (AURKA (Aurora A)) was 1%. It also gave an inhibition at 10 µM (CDK1/cyclin B; 10 µM compound) of 16%, an inhibition at 10 µM (CHEK2 (CHK2); 10 µM compound) of 15% and an inhibition at 10 µM (CSNK1G1 (CK1γ1); 10 µM compound) of 13%. For the same compound, the inhibition at 10 µM (ITK; 10 µM compound) was 6%, the inhibition at 1 µM (MAPK14 (p38α)) was 23% and the inhibition at 10 µM (MAPK9 (JNK2); 10 µM compound) was 23%. It also gave an inhibition at 1 µM (MAPKAPK2) of 4%, an inhibition at 10 µM (PRKCD (PKCδ); 10 µM compound) of 19% and an inhibition at 10 µM (ROCK1; 10 µM compound) of 20%. It also gave an inhibition at 10 µM (RPS6KA1 (RSK1); 10 µM compound) of 12%, an inhibition at 10 µM (CDK7/cyclin H/MNAT1; 10 µM compound) of 0% and an inhibition at 10 µM (CDK9/cyclin T1; 10 µM compound) of 1%. For the same compound, the inhibition at 10 µM (PI4KB (PI4Kβ); 10 µM compound) was 3%, the inhibition at 10 µM (PIK3CG (p110γ); 10 µM compound) was 4% and the tumour growth (PC3 xenografts; up to 50 mg kg^−1 daily i.p.) was “no effect”. The water solubility (Water solubility) was “water soluble compound”.
Work on `O=P(O)(O)OC1C(OCc2ccccc2)C(OP(=O)(O)O)C(OP(=O)(O)O)C(OP(=O)(O)O)C1OP(=O)(O)O` (centres unmarked) [2-O-Bn-InsP5, 2-O-benzyl-myo-inositol 1,3,4,5,6-pentakisphosphate] yielded an inhibition at 1 µM (AKT2 (PKBβ); 1 µM compound, [ATP] 200 µM) of 16%, an IC50 (AKT2 (PKBβ)) of 77 µM and an inhibition at 1 µM (AMPK A2/B1/G1) of 25%. The inhibition at 1 µM (AURKA (Aurora A)) was 34%, the inhibition at 1 µM (CDK1/cyclin B; 1 µM compound) was 9% and the inhibition at 1 µM (CHEK2 (CHK2); 1 µM compound) was 12%. It also gave an inhibition at 1 µM (CSNK1G1 (CK1γ1); 1 µM compound) of 7%, an inhibition at 1 µM (ITK; 1 µM compound) of -11% and an inhibition at 1 µM (MAPK14 (p38α)) of 30%. It also gave an inhibition at 1 µM (MAPK9 (JNK2); 1 µM compound) of -1%, an inhibition at 1 µM (MAPKAPK2) of 20% and an inhibition at 1 µM (PRKCD (PKCδ); 1 µM compound) of 9%. For the same compound, the inhibition at 1 µM (ROCK1; 1 µM compound) was 7%, the inhibition at 1 µM (RPS6KA1 (RSK1); 1 µM compound) was 2% and the inhibition at 1 µM (CDK7/cyclin H/MNAT1; 1 µM compound) was -2%. It also gave an inhibition at 1 µM (CDK9/cyclin T1; 1 µM compound) of -11%, an inhibition at 1 µM (PI4KB (PI4Kβ); 1 µM compound) of 0% and an inhibition at 1 µM (PIK3CG (p110γ); 1 µM compound) of -41%. For the same compound, the “T-C (tumour growth delay)” value (PC3 xenografts; 50 mg kg^-1, i.p., qdx15) was about 9 days, the tumour growth (PC3 xenografts; 50 mg kg^−1 daily i.p., significant from day 22) was “strong reduction in tumour growth” and the tumour growth (PC3 xenografts; 12.5 and 25 mg kg^−1 daily i.p., vs untreated mice) was “clearly decreased the growth of tumours”. The water solubility (Water solubility) was “water soluble compound”.

— PMC2813745, “A novel inhibitor of the PI3K/Akt pathway based on the structure of inositol 1,3,4,5,6-pentakisphosphate” (British Journal of Cancer, 2010)
